Results from patent US8916702B2 (priority 2012, dated 2014).

These molecules were tested on HCV pseudoparticles (genotype 1a HCV E1 and E2 envelope, H77C isolate) (assay: microbe, parasite or virus in culture). Settings: Hepatitis C virus, Huh-7, 48 h, HCV pseudoparticle infection of Huh7 cells, luciferase 2 days after infection; average of duplicates.
Format: cell-based

| Compound | EC50 [nM] |
| --- | --- |
| CC(C)(C)OC(=O)NC1CCCC(NC(=O)C(=O)NC[C@H](NC(=O)c2ccc(Nc3nc(NC4(c5ccc(Cl)cc5)CC4)nc(OCC(F)(F)F)n3)cc2)C(=O)O)C1 (some centres unmarked) [Compound 1083] | 1.78 |
| CC1(C)[C@H]2C[C@@]1(C)CCC2CNC(=O)C(=O)NCC[C@H](NC(=O)c1ccc(Nc2nc(NC3(c4ccc(Cl)cc4)CC3)nc(OCC(F)(F)F)n2)cc1)C(=O)O (some centres unmarked) [Compound 1211] | 0.13 |

Same assay, conditions: Hepatitis C virus, Huh-7, 48 h, HCV pseudoparticles (genotype 1a, H77C) in Huh7 cells; average of duplicate; luciferase 2 days after infection

| Compound | EC50 [nM] |
| --- | --- |
| O=C(Nc1ccc(F)cc1)C(=O)N(CCO)CCCNC(=O)c1ccc(Nc2nc(NC3(c4ccc(Cl)cc4)CC3)nc(OCC(F)(F)F)n2)cc1 [Compound 3499] | 0.46 |
| CC(C)(CNC(=O)c1ccc(Nc2nc(NC3(c4ccc(Cl)cc4)CC3)nc(OCC(F)(F)F)n2)cc1)NC(=O)C(=O)Nc1ccccc1 [Compound 3425] | 0.033 |
| COC(=O)[C@@H](CCNC(=O)C(=O)Nc1ccc(Oc2cccnc2)nc1)NC(=O)c1ccc(Nc2nc(NC3(c4ccc(Cl)cc4)CC3)nc(OCC(F)(F)F)n2)cc1 [Compound 3582] | 8.95 |

Same assay, conditions: Hepatitis C virus, Huh-7, 48 h, HCV pseudoparticles, Huh7 cells, luciferase 2 days after infection; average of duplicates

| Compound | EC50 [nM] |
| --- | --- |
| O=C(NC[C@H](NC(=O)c1ccc(Nc2nc(NC3(c4ccc(Cl)cc4)CC3)nc(OCC(F)(F)F)n2)cc1)C(=O)O)C(=O)Nc1cccc(-c2ncc[nH]2)c1 [Compound 3765] | 0.68 |

Same assay, conditions: Hepatitis C virus, Huh-7, 48 h, read-out: Activity (EC50 class), HCV pseudoparticle infection of Huh7 cells, luciferase 2 days after infection; EC50 expressed as class A/B

| Compound | EC50 [nM] |
| --- | --- |
| Cn1nccc1NC(=O)C(=O)NCC[C@H](NC(=O)c1ccc(Nc2nc(NC3(c4ccc(Cl)cc4)CC3)nc(OCC(F)(F)F)n2)cc1)C(=O)O [Compound 1281] | 0.01 to 10 |
| O=C(NCCc1ccccn1)C(=O)NC[C@H](NC(=O)c1ccc(Nc2nc(NC3(c4ccc(Cl)cc4)CC3)nc(OCC(F)(F)F)n2)cc1)C(=O)O [Compound 1394] | 0.01 to 10 |
| CC(C)(C)OC(=O)NC1CCCC(NC(=O)C(=O)NC[C@H](NC(=O)c2ccc(Nc3nc(NC4(c5ccc(Cl)cc5)CC4)nc(OCC(F)(F)F)n3)cc2)C(=O)O)C1 (some centres unmarked) [Compound 1083] | 0.01 to 10 |
| Cc1nccn1CCNC(=O)C(=O)NCC[C@H](NC(=O)c1ccc(Nc2nc(NC3(c4ccc(Cl)cc4)CC3)nc(OCC(F)(F)F)n2)cc1)C(=O)O [Compound 1344] | 0.01 to 10 |
| COC(=O)[C@H](CCNC(=O)C(=O)NCC1CCc2ccccc21)NC(=O)c1ccc(Nc2nc(NC3(c4ccc(Cl)cc4)CC3)nc(OCC(F)(F)F)n2)cc1 (some centres unmarked) [Compound 1324] | 0.01 to 10 |
| COC(=O)[C@H](CCNC(=O)C(=O)N[C@H](C)C1CC1)NC(=O)c1ccc(Nc2nc(NC3(c4ccc(Cl)cc4)CC3)nc(OCC(F)(F)F)n2)cc1 [Compound 1377] | 0.01 to 10 |
| COC(=O)[C@H](CCNC(=O)C(=O)NCC1CCCCC1)NC(=O)c1ccc(Nc2nc(NC3(c4ccc(Cl)cc4)CC3)nc(OCC(F)(F)F)n2)cc1 [Compound 1143] | 0.01 to 10 |
| COC(=O)[C@H](CCNC(=O)C(=O)NCc1cccc(OC)c1)NC(=O)c1ccc(Nc2nc(NC3(c4ccc(Cl)cc4)CC3)nc(OCC(F)(F)F)n2)cc1 [Compound 1156] | 0.01 to 10 |
| COC(=O)[C@@H](CCNC(=O)C(=O)NC(CCO)C1CC1)NC(=O)c1ccc(Nc2nc(NC3(c4ccc(Cl)cc4)CC3)nc(OCC(F)(F)F)n2)cc1 (some centres unmarked) [Compound 1390] | 0.01 to 10 |
| COC(=O)[C@H](CCNC(=O)C(=O)Nc1cccc(F)c1)NC(=O)c1ccc(Nc2nc(NC3(c4ccc(Cl)cc4)CC3)nc(OCC(F)(F)F)n2)cc1 [Compound 1227] | 0.01 to 10 |
| O=C(NCC1CC1)C(=O)NC[C@H](NC(=O)c1ccc(Nc2nc(NC3(c4ccc(Cl)cc4)CC3)nc(OCC(F)(F)F)n2)cc1)C(=O)O [Compound 1467] | 0.01 to 10 |
| COC(=O)[C@H](CCNC(=O)C(=O)Nn1cnnc1)NC(=O)c1ccc(Nc2nc(NC3(c4ccc(Cl)cc4)CC3)nc(OCC(F)(F)F)n2)cc1 [Compound 1219] | 10 to 1000 |
| COC(=O)[C@@H](CCNC(=O)C(=O)NCC1(Cn2nc(C)cc2C)CC1)NC(=O)c1ccc(Nc2nc(NC3(c4ccc(Cl)cc4)CC3)nc(OCC(F)(F)F)n2)cc1 [Compound 1383] | 0.01 to 10 |
| CC(C)(CNC(=O)C(=O)Nc1cccc(-c2ccc(Cl)cc2)c1)CNC(=O)c1ccc(Nc2nc(NC3(c4ccc(Cl)cc4)CC3)nc(OCC(F)(F)F)n2)cc1 [Compound 1586] | 0.01 to 10 |
| O=C(NCC1CC1)C(=O)NC1CCCC1CNC(=O)c1ccc(Nc2nc(NC3(c4ccc(Cl)cc4)CC3)nc(OCC(F)(F)F)n2)cc1 (centres unmarked) [Compound 1462] | 0.01 to 10 |
| COC(=O)[C@H](CCNC(=O)C(=O)Nc1cc(F)c(F)cc1F)NC(=O)c1ccc(Nc2nc(NC3(c4ccc(Cl)cc4)CC3)nc(OCC(F)(F)F)n2)cc1 [Compound 1510] | 0.01 to 10 |
| COC(=O)[C@H](CCNC(=O)C(=O)NC1CCN(C(=O)OC(C)(C)C)CC1)NC(=O)c1ccc(Nc2nc(NC3(c4ccc(Cl)cc4)CC3)nc(OCC(F)(F)F)n2)cc1 [Compound 1101] | 0.01 to 10 |
| CC(C)(CNC(=O)C(=O)Nc1ccc(F)c(F)c1)CNC(=O)c1ccc(Nc2nc(NC3(c4ccc(Cl)cc4)CC3)nc(OCC(F)(F)F)n2)cc1 [Compound 1556] | 0.01 to 10 |
| O=C(NCC[C@H](NC(=O)c1ccc(Nc2nc(NC3(c4ccc(Cl)cc4)CC3)nc(OCC(F)(F)F)n2)cc1)C(=O)O)C(=O)NC(CCO)C1CC1 (some centres unmarked) [Compound 1439] | 0.01 to 10 |
| CC1(C)[C@H]2C[C@@]1(C)CCC2CNC(=O)C(=O)NCC[C@H](NC(=O)c1ccc(Nc2nc(NC3(c4ccc(Cl)cc4)CC3)nc(OCC(F)(F)F)n2)cc1)C(=O)O (some centres unmarked) [Compound 1211] | 0.01 to 10 |
| O=C(NCC[C@H](NC(=O)c1ccc(Nc2nc(NC3(c4ccc(Cl)cc4)CC3)nc(OCC(F)(F)F)n2)cc1)C(=O)O)C(=O)Nc1cccc(Cl)c1 [Compound 1500] | 0.01 to 10 |

Same assay, conditions: Hepatitis C virus, Huh-7, 48 h, read-out: Activity (EC50 class), HCV pseudoparticles, Huh7 cells, luciferase 2 days after infection; average of duplicates

| Compound | EC50 [nM] |
| --- | --- |
| O=C(NCC[C@H](NC(=O)c1ccc(Nc2nc(NC3(c4ccc(Cl)cc4)CC3)nc(OCC(F)(F)F)n2)cc1)C(=O)O)C(=O)Nc1ccc(N2CCOCC2)nc1 [Compound 3628] | 0.01 to 10 |
| O=C(NC[C@H](NC(=O)c1ccc(Nc2nc(NC3(c4ccc(Cl)cc4)CC3)nc(OCC(F)(F)F)n2)cc1)C(=O)Cl)C(=O)Nc1ccc(Cl)nc1 [Compound 3739] | 0.01 to 10 |
| O=C(NCC[C@H](NC(=O)c1ccc(Nc2nc(NC3(c4ccc(Cl)cc4)CC3)nc(OCC(F)(F)F)n2)cc1)C(=O)O)C(=O)Nc1cccc(Oc2cccnc2)c1 [Compound 3662] | 0.01 to 10 |
| O=C(NCC[C@H](NC(=O)c1ccc(Nc2nc(NC3(c4ccc(Cl)cc4)CC3)nc(OCC(F)(F)F)n2)cc1)C(=O)O)C(=O)Nc1cccc(-n2ccnc2)c1 [Compound 3659] | 0.01 to 10 |
| COC(=O)[C@H](CNC(=O)C(=O)Nc1ccc(OCCN(C)C)nc1)NC(=O)c1ccc(Nc2nc(NC3(c4ccc(Cl)cc4)CC3)nc(OCC(F)(F)F)n2)cc1 [Compound 3735] | 0.01 to 10 |
| O=C(NC[C@H](NC(=O)c1ccc(Nc2nc(NC3(c4ccc(Cl)cc4)CC3)nc(OCC(F)(F)F)n2)cc1)C(=O)O)C(=O)Nc1cccc(-c2ncc[nH]2)c1 [Compound 3765] | 0.01 to 10 |
| COC(=O)[C@H](CNC(=O)C(=O)Nc1cccc(C(C)(C)C)c1)NC(=O)c1ccc(Nc2nc(NC3(c4ccc(Cl)cc4)CC3)nc(OCC(F)(F)F)n2)cc1 [Compound 3704] | 0.01 to 10 |

Same assay, conditions: Hepatitis C virus, Huh-7, read-out: Activity (EC50 class), HCV pseudoparticles (genotype 1a, H77C) in Huh7 cells; EC50 expressed as class A/B

| Compound | EC50 [nM] |
| --- | --- |
| O=C(NCCCCNC(=O)c1ccc(Nc2nc(NC3(c4ccc(Cl)cc4)CC3)nc(OCC(F)(F)F)n2)cc1)C(=O)Nc1cccc(F)c1 [Compound 3390] | 0.01 to 10 |
| COC(=O)[C@H](CCNC(=O)C(=O)Nc1ccc(-c2ccno2)cc1)NC(=O)c1ccc(Nc2nc(NC3(c4ccc(Cl)cc4)CC3)nc(OCC(F)(F)F)n2)cc1 [Compound 3316] | 0.01 to 10 |
| CC(C)(CNC(=O)C(=O)Nc1ccc(C[Si](C)(C)C)cc1)CNC(=O)c1ccc(Nc2nc(NC3(c4ccc(Cl)cc4)CC3)nc(OCC(F)(F)F)n2)cc1 [Compound 3054] | 0.01 to 10 |
| CC(C)(CNC(=O)C(=O)NCc1cccc(Cl)c1)CNC(=O)c1ccc(Nc2nc(NC3(c4ccc(Cl)cc4)CC3)nc(OCC(F)(F)F)n2)cc1 [Compound 3020] | 0.01 to 10 |
| Cc1ccc(NC(=O)C(=O)NC/C(=N/C(=O)c2ccc(Nc3nc(NC4(c5ccc(Cl)cc5)CC4)nc(OCC(F)(F)F)n3)cc2)C(=O)O)cc1 [Compound 3153] | 0.01 to 10 |
| COC(=O)[C@H](CNC(=O)C(=O)Nc1ccc(CCO)cc1)NC(=O)c1ccc(Nc2nc(NC3(c4ccc(Cl)cc4)CC3)nc(OCC(F)(F)F)n2)cc1 [Compound 3086] | 0.01 to 10 |
| Cc1nnnn1-c1cc(Nc2nc(NC3(c4ccc(Cl)cc4)CC3)nc(OCC(F)(F)F)n2)ccc1C(=O)NCC(C)(C)CNC(=O)C(=O)Nc1cccc(F)c1 [Compound 3517] | 0.01 to 10 |
| CC(C)(CNC(=O)C(=O)Nc1ccc(C(F)(F)F)cc1F)CNC(=O)c1ccc(Nc2nc(NC3(c4ccc(Cl)cc4)CC3)nc(OCC(F)(F)F)n2)cc1 [Compound 3409] | 0.01 to 10 |
| COC(=O)[C@H](CCNC(=O)C(=O)Nc1ccc(-c2nncn2C)cc1)NC(=O)c1ccc(Nc2nc(NC3(c4ccc(Cl)cc4)CC3)nc(OCC(F)(F)F)n2)cc1 [Compound 3317] | 0.01 to 10 |
| COC(=O)[C@H](CNC(=O)C(=O)Nc1ccc(-n2cccn2)cc1)NC(=O)c1ccc(Nc2nc(NC3(c4ccc(Cl)cc4)CC3)nc(OCC(F)(F)F)n2)cc1 [Compound 3108] | 0.01 to 10 |
| CC(C)(CNC(=O)C(=O)Nc1ccc(Cl)cc1F)CNC(=O)c1ccc(Nc2nc(NC3(c4ccc(Cl)cc4)CC3)nc(OCC(F)(F)F)n2)cc1 [Compound 3452] | 0.01 to 10 |
| O=C(Nc1ccc(F)cc1)C(=O)N(CCO)CCCNC(=O)c1ccc(Nc2nc(NC3(c4ccc(Cl)cc4)CC3)nc(OCC(F)(F)F)n2)cc1 [Compound 3499] | 0.01 to 10 |
| CC(C)(CNC(=O)c1ccc(Nc2nc(NC3(c4ccc(Cl)cc4)CC3)nc(OCC(F)(F)F)n2)cc1)NC(=O)C(=O)Nc1ccccc1 [Compound 3425] | 0.01 to 10 |
| COC(=O)[C@@H](CCNC(=O)C(=O)Nc1ccc(Oc2cccnc2)nc1)NC(=O)c1ccc(Nc2nc(NC3(c4ccc(Cl)cc4)CC3)nc(OCC(F)(F)F)n2)cc1 [Compound 3582] | 0.01 to 10 |
| CC(C)(CNC(=O)C(=O)Nc1ccc(S(C)(=O)=O)cc1)CNC(=O)c1ccc(Nc2nc(NC3(c4ccc(Cl)cc4)CC3)nc(OCC(F)(F)F)n2)cc1 [Compound 3254] | 0.01 to 10 |
| CC(C)(C)c1ccc(NC(=O)C(=O)NCC[C@H](NC(=O)c2ccc(Nc3nc(NC4(c5ccc(Cl)cc5)CC4)nc(OCC(F)(F)F)n3)cc2)C(=O)O)cc1 [Compound 3549] | 0.01 to 10 |
| O=C(NCCCCNC(=O)c1ccc(Nc2nc(NC3(c4ccc(Cl)cc4)CC3)nc(OCC(F)(F)F)n2)cc1)C(=O)Nc1ccc(F)cc1 [Compound 3395] | 0.01 to 10 |
| COC(=O)[C@@H](CCNC(=O)C(=O)Nc1cccc(C)c1)NC(=O)c1ccc(Nc2nc(NC3(c4ccc(Cl)cc4)CC3)nc(OCC(F)(F)F)n2)cc1 [Compound 3572] | 0.01 to 10 |
| CC(C)(CNC(=O)C(=O)Nc1ccccc1C(N)=O)CNC(=O)c1ccc(Nc2nc(NC3(c4ccc(Cl)cc4)CC3)nc(OCC(F)(F)F)n2)cc1 [Compound 3375] | 0.01 to 10 |
